From US20110020801A1, “Carboxylesterase-1 Polymorphisms and Methods of Use Therefor” (priority 2007, published 2011) come the findings set out here.

The test addresses T1, WT CES1 (Homo sapiens, UniProt P23141).
T1 construct: inserting a stop codon after CES1A1 gene to yield the constructs expressing CES1 without V5-His tag; expressed in transfected cells
T1 sequence (P23141 18-567): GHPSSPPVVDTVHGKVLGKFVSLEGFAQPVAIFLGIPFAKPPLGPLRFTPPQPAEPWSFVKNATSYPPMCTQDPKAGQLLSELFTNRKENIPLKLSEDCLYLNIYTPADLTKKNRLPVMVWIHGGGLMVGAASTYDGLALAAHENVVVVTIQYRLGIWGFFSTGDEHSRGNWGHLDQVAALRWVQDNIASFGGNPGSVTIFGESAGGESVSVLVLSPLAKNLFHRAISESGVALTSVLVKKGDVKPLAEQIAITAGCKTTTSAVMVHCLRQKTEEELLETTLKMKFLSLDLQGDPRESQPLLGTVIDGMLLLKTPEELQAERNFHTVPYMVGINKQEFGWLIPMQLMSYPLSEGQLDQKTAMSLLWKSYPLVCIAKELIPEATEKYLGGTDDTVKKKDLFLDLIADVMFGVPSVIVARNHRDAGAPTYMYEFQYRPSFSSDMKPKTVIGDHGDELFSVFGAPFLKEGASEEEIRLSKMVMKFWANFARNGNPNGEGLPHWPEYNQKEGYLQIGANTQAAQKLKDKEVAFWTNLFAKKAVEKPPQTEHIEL
The test can be described thus: MPH hydrolysis to ritalinic acid by S9 of cells expressing WT CES1 (HPLC). The following applies: S9 0.5 mg/mL, 37° C., 2 hours, mean ± S.D. (n = 3), listed as d-isomer. It counts as biochemical. An excerpt: The desired plasmid was designed such that the recombinant CES1 would be expressed in mammalian cells with a V5-His tag to facilitate detection and purification. Additionally, another plasmid was generated by inserting a stop codon after CES1A1 gene to yield the constructs expressing CES1 without V5-His tag. […] Thus, only untagged CES1 and its associated mutants were used in the enzymatic hydrolysis study. Two constructs of CES1 mutations, p.Gly143Glu and p.Asp260fs, were generated using a site-directed mutagenesis assay. All constructs were subjected to DNA sequencing analysis to confirm that the desired plasmids were obtained. The identified CES1A1 plasmids (WT, p.Gly143Glu, and p.Asp260fs) were co-transfected with pOG44 plasmid at a ratio of 1:10 into Flp-In™-293 cells using […] (Invitrogen, Carlsbad, Calif.). Additionally, the self-ligated pcDNA5/FRT/V5-His-TOPO® vector was included as a vector control. Twenty-four hours after transfection, cells were washed with PBS and fresh complete medium (Dulbecco's modified Eagle's medium containing 10% fetal bovine serum) was added. […]
After attaining approximately 95% confluence, cells were rinsed and harvested in PBS containing 10 mM HEPES (pH 7.4). […] The protein concentration was determined using a Pierce BCA assay kit (Rockford, Ill.).
For the study of MPH hydrolysis, the reaction was conducted in 1.5 mL eppendorf tubes with a final S9 concentration of 0.5 mg/mL at a total volume of 100 μL. […] Concentrations of the primary phase I MPH metabolite produced via hydrolysis, ritalinic acid (RA), was determined utilizing an established HPLC method described below.
Thus, following the enzymatic assay, the values determined for spontaneous PNP and RA hydrolysis were subtracted from the total PNP and RA production. […] All collected data were fit to the Michaelis-Menten equation, and kinetic parameters were calculated using nonlinear regression analysis with Graphpad Prism software (Graphpad Software Inc., San Diego, Calif.) […]

On to `COC(=O)[C@H](c1ccccc1)[C@H]1CCCCN1` [d-MPH, methylphenidate], for which the Vmax stood at 177.2 pmole/min/mg protein.
